The values below come from patent US20240100074A1, “Clinical Dosing Schedule of Inositol Phosphate Oligo(Ethylene Glycol) Compounds” (VIFOR (INTERNATIONAL) AG, priority 2021, published 2024).

Data set [1] can be described thus: Profile of (I a) compared to pyrophosphate and bisphosphonates.
The conditions of data set [2]: subcutaneous administration, Sprague Dawley rats; cited from earlier work.
A short description of data set [3]: Plasma concentrations of (I a) in treated Abcc6−/− mice. Format: in vivo, mouse. Here is the method: (§1) Muzzle skin biopsies (left side) from euthanized mice were collected and fixed in 10% phosphate-buffered formalin and embedded in paraffin. Paraffin sections (6 μm) were stained with Hematoxylin and Eosin or von Kossa using standard procedures. To quantify the mineral deposition, muzzle skin biopsies (right side) were harvested and decalcified with 1.0 M HCl for 48 hours at room temperature. Solubilized calcium was then determined by a colorimetric assay (J. Huang et al., J Invest Dermatol 2019, 139, 1254; Q. Li, J. Huang et al., J Invest Dermatol 2019, 139, 360). The values were normalized to tissue weight. Whole blood was collected by retro-orbital bleeding or cardiac puncture. For subcutaneously injected mice, whole blood was collected 30 minutes after injection of (I a). Whole blood was collected at 2 days, 3 weeks, and 6 weeks after treatment initiation in mice receiving (I a). The concentrations of (I a) in heparin plasma were analyzed on an ultra-fast liquid chromatography, as described previously (A. E. Schantl et al., Nat Commun 2020, 11, 721). The data was analyzed using Kruskal-Wallis nonparametric test.
(I a) was undetectable in plasma of untreated Abcc6^−/− mice.
The Tmax of (I a) in plasma after subcutaneous administration in Sprague Dawley rats was reported to be about 30 minutes after injection, the inventors therefore measured (I a) concentrations in plasma 30 minutes after injection in the Abcc6^−/− mice.

The test system of data set [4] is Abcc6−/− mice (mouse model of PXE). Description: Treatment (reversal) study: histopathology and calcium assay of muzzle skin in old mice. Format: in vivo. The conditions noted are these: 12-week-old mice, osmotic pump 4 mg/kg/day for 12 weeks, analysed at 24 weeks of age. Here is the method: Abcc6^−/− knock-out mice (Abcc6^−/−) on C57BL/6J background were generated as described previously (J. F. Klement et al., Mol Cell Biol 2005, 25, 8299). C57BL/6J mice from The Jackson Laboratory (Bar Harbor, ME) were used as wild-type controls (WT). In prevention study, 6-week-old Abcc6^−/− mice were administered with (I a) by periodic subcutaneous injections or continuous administration via subcutaneous ALZET osmotic pump model 2006 (DURECT Corp, Cupertino, CA) for duration of 6 weeks. In reversal study, 12-week-old Abcc6^−/− mice were administered (I a) at 4 mg/kg/day via osmotic pumps for 12 weeks. […]
Muzzle skin biopsies (left side) from euthanized mice were collected and fixed in 10% phosphate-buffered formalin and embedded in paraffin. […] To quantify the mineral deposition, muzzle skin biopsies (right side) were harvested and decalcified with 1.0 M HCl for 48 hours at room temperature. Solubilized calcium was then determined by a colorimetric assay (J. Huang et al., J Invest Dermatol 2019, 139, 1254; Q. Li, J. Huang et al., J Invest Dermatol 2019, 139, 360). […] The concentrations of (I a) in heparin plasma were analyzed on an ultra-fast liquid chromatography, as described previously (A. E. Schantl et al., Nat Commun 2020, 11, 721). The data was analyzed using Kruskal-Wallis nonparametric test. […]

For data set [5] the test system is unchanged. Briefly: Prevention study: quantitative chemical calcium assay of muzzle skin biopsies. Format: in vivo. The conditions noted are these: 6 weeks. Here is the method: (§2) Abcc6^−/− knock-out mice (Abcc6^−/−) on C57BL/6J background were generated as described previously (J. F. Klement et al., Mol Cell Biol 2005, 25, 8299). C57BL/6J mice from The Jackson Laboratory (Bar Harbor, ME) were used as wild-type controls (WT). In prevention study, 6-week-old Abcc6^−/− mice were administered with (I a) by periodic subcutaneous injections or continuous administration via subcutaneous ALZET osmotic pump model 2006 (DURECT Corp, Cupertino, CA) for duration of 6 weeks. In reversal study, 12-week-old Abcc6^−/− mice were administered (I a) at 4 mg/kg/day via osmotic pumps for 12 weeks. All mice were maintained on a standard diet and sacrificed at 12 weeks of age, 6 weeks after initiation of treatment (prevention study), or at 24 weeks of age, 12 weeks after initiation of treatment (reversal study). All protocols were approved by the Institutional Animal Care and Use Committee of Thomas Jefferson University.
Muzzle skin biopsies (left side) from euthanized mice were collected and fixed in 10% phosphate-buffered formalin and embedded in paraffin. […] To quantify the mineral deposition, muzzle skin biopsies (right side) were harvested and decalcified with 1.0 M HCl for 48 hours at room temperature. Solubilized calcium was then determined by a colorimetric assay (J. Huang et al., J Invest Dermatol 2019, 139, 1254; Q. Li, J. Huang et al., J Invest Dermatol 2019, 139, 360). […] The concentrations of (I a) in heparin plasma were analyzed on an ultra-fast liquid chromatography, as described previously (A. E. Schantl et al., Nat Commun 2020, 11, 721). The data was analyzed using Kruskal-Wallis nonparametric test.
The Abcc6^−/− mice were administered (I a) by subcutaneous implantation of osmotic pumps at doses of 0.16, 0.8, 4, 20, and 100 mg/kg/day. […] The extent of ectopic calcification after 6 weeks of treatment was analyzed by two independent assays measuring calcification in the dermal sheath of vibrissae in muzzle skin, an early and reliable biomarker in this mouse model of PXE. One piece of muzzle skin was processed for semi-quantitative histological evaluation. […]

For data set [6] the test system is unchanged. Description: Prevention study: histologic (von Kossa) evaluation of vibrissae calcification in muzzle skin. Format: in vivo. To be noted: for calcification in the dermal sheath of vibrissae in muzzle skin (von Kossa) / inhibition of ectopic calcification: osmotic pump. On the procedure: as §2, §1
The Abcc6^−/− mice were administered (I a) by subcutaneous implantation of osmotic pumps at doses of 0.16, 0.8, 4, 20, and 100 mg/kg/day. The untreated wild-type and Abcc6^−/− mice served as negative and positive controls of ectopic calcification. Treatment was initiated at 6 weeks of age, a time point at the earliest stages of ectopic calcification in the Abcc6^−/− mice. The extent of ectopic calcification after 6 weeks of treatment was analyzed by two independent assays measuring calcification in the dermal sheath of vibrissae in muzzle skin, an early and reliable biomarker in this mouse model of PXE. One piece of muzzle skin was processed for semi-quantitative histological evaluation. […] The therapeutic effects of (I a) were substantiated by the calcium content in another muzzle skin biopsy measured using a quantitative chemical assay (FIG. 2A).
The inventors next examined whether periodic, bolus subcutaneous injections of (I a) at the same dose of 4 mg/kg/day, would have similar therapeutic benefits. Six-week-old Abcc6^−/− mice were administered (I a) by subcutaneous injections three times per week corresponding to 4 mg/kg/day. […] Thus, subcutaneous injection of (I a) is effective, albeit less than with continuous delivery at the same dose of 4 mg/kg/day on inhibition of ectopic calcification.
Three additional dose levels of (I a) at weekly subcutaneous injections for a duration of 6 weeks were tested to evaluate the inhibitory effects of (I a) (FIG. 1A). […] The semi-quantitative histologic evaluations of (I a) treatment were consistent with the calcium contents in the muzzle skin measured by a chemical assay (FIG. 2A).

Data set [7] concerns cardiovascular calcifications. The conditions noted are these: patients on hemodialysis, 1-year treatment; cited from earlier work.

SMILES strings stand for the structures. Entries after “also recorded” stand apart in the source; their conditions may differ.

Regarding `COCCOCCOC1C(OP(=O)(O)O)C(OCCOCCOC)C(OP(=O)(O)O)C(OP(=O)(O)O)C1OP(=O)(O)O` (centres unmarked) [(I a), bis-oligoethylene myo-inositol tetrakisphosphate], in data set [1], the anti-osteoclastic activity result is given as “no anti-osteoclastic activity”. For the same compound, in data set [1], the local tolerability entry is on record as “good”. Further, the subcutaneous bioavailability result in data set [1] is given as “high”. Moreover, the Tmax in plasma entry in data set [2] is reported as “about 30 minutes”. In addition, the “plasma levels over time” value in data set [3] (2 days, 3 weeks and 6 weeks after implantation of the osmotic pump) is reported as “remained largely constant; also recorded: largely consistent during treatment”. For the same compound, the “plasma levels 30 minutes after subcutaneous injection” value in data set [3] (bolus subcutaneous injection versus pump administered groups) was “much higher than that in the pump administered groups”. Further, the “plasma concentrations versus dose, all groups” value in data set [3] (osmotic pump (prior to sacrifice) or 30 minutes after subcutaneous injection) was “scaled relatively well with the dose administered”. Further, the “plasma concentrations versus dose” value in data set [3] (osmotic pump, 0.16 to 100 mg/kg/day) is “dose-dependent”. The “degree of ectopic calcification in muzzle skin after treatment” value is reported as “prevented further calcification; also recorded: calcification similar to 12-week-old Abcc6^−/− control mice; also recorded: stabilized existing calcification” in data set [4] and “stabilize existing calcification” in data set [4] (listed as INS-3001). The “minimum active dose / minimum effective dose” value in data set [5] (continuous osmotic pump administration) turned out to be 0.8 mg/kg/day. For the same compound, the “inhibition of ectopic calcification by calcium assay” value in data set [5] (osmotic pump, 0.8 mg/kg/day) came to 59%; in data set [5] (subcutaneous injections three times per week corresponding to 4 mg/kg/day), 63%. Besides, the “calcification in the dermal sheath of vibrissae in muzzle skin (von Kossa)” value is reported as “no effects” in data set [6] (0.16 mg/kg/day, 6 weeks); “evident but significantly reduced calcification” in data set [6] (0.8 mg/kg/day, 6 weeks); “very little, if any, calcification; also recorded: little, if any, calcification; also recorded: completely prevented ectopic calcification; also recorded: complete response” in data set [6] (4 mg/kg/day (and above), 6 weeks, from 6 weeks of age, 4 mg/kg/day). Also, the “inhibition of ectopic calcification” value in data set [6] (4 mg/kg/day, 6 weeks) is on record as ~100%; in data set [6] (100 mg/kg/day, 6 weeks), ~100%. Moreover, the “calcification, subcutaneous injections overall” value in data set [6] (subcutaneous injections at different doses and frequencies (thrice weekly and once weekly)) is listed as “decreased calcification; also recorded: prevented calcification”. Besides, the “calcification in the muzzle skin (histology)” value in data set [6] (subcutaneous injections three times per week corresponding to 4 mg/kg/day, 6 weeks) is listed as “significantly reduced calcification”; in data set [6] (weekly subcutaneous injection, 4 mg/kg/day, 6 weeks), “significantly reduced calcification”. In addition, the “ectopic calcification in the muzzle skin (histology)” value in data set [6] (weekly subcutaneous injection, 0.8 mg/kg/day, 6 weeks) was “significantly reduced ectopic calcification”.
For the compound `O=P(O)(O)O[C@H]1[C@H](OP(=O)(O)O)[C@@H](OP(=O)(O)O)[C@H](OP(=O)(O)O)[C@@H](OP(=O)(O)O)[C@H]1OP(=O)(O)O` [IP6], the “progression of cardiovascular calcifications” value in data set [7] is “stop the progression, albeit without regression”.
